The target of assay [1] is Coagulation factor X (Homo sapiens, UniProt P00742). As to the kind of experiment: In vitro inhibition of human Coagulation factor X.
In assay [2] the target is Prothrombin (Homo sapiens, UniProt P00734). As to the kind of experiment: In vitro inhibition of human Coagulation factor II.

SMILES strings stand for the structures.

What is called Ki is a measure of affinity in units of concentration, obtained from inhibition or displacement. A higher Ki goes with lower affinity.

Chain of Coagulation factor X (P00742 41-179 limits assumed): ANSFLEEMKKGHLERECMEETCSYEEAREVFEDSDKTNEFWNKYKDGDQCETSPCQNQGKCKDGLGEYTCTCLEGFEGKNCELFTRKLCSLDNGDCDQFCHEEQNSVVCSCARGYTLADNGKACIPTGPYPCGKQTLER
Chain of Coagulation factor X (P00742 235-488 limits assumed): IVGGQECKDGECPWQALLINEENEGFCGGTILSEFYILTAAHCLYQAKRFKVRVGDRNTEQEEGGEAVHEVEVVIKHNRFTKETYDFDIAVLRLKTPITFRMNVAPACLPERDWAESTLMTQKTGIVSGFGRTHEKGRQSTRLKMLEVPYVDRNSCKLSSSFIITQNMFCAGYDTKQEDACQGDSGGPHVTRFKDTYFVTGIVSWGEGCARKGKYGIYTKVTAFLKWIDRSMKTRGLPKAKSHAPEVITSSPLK

Turning to `CC(=N)N1CCC(Oc2ccc3cc(C(=O)N(C)C)n(Cc4ccc5ccc(C(=N)N)cc5c4)c3c2)CC1`, the Ki in assay [1] was 3.5 nM; in assay [2], 1050 nM. As for `N=C(N)c1ccc(Oc2ccc3c4ccccc4n(Cc4ccc5ccc(C(=N)N)cc5c4)c3c2)cc1`, the Ki in assay [2] came out at 210 nM. Turning to `N=C(N)c1ccc2ccc(Cn3c4ccccc4c4ccc(OC5CCNCC5)cc43)cc2c1`, the Ki in assay [1] was 4 nM; in assay [2] it was 90 nM. On the same counts, the results for `CCOC(=O)c1cc2ccc(OC3CCN(C(C)=N)CC3)cc2n1Cc1ccc2ccc(C(=N)N)cc2c1` are 0.6 nM and 360 nM. As to `CC(=N)N1CCC(Oc2ccc3cc(C(=O)O)n(Cc4ccc5ccc(C(=N)N)cc5c4)c3c2)CC1`, the Ki in assay [1] was found to be 4.6 nM; in assay [2], 520 nM. As to `CC(=N)N1CCC(Oc2ccc3cc(C(=O)NC(CC(=O)O)C(=O)O)n(Cc4ccc5ccc(C(=N)N)cc5c4)c3c2)CC1` (configuration not stated), the results for the Ki in assay [1] and in assay [2] were 20 nM and 2350 nM, respectively. On to `N=C(N)c1cccc(CNc2ccc3ccn(-c4cccc(C(=N)N)c4)c3c2)c1`, for which the values for the Ki in assay [1] and in assay [2] were 190 nM and 4000 nM, respectively. Turning to `CN(C)C(=O)COc1ccc2c3ccccc3n(Cc3ccc4ccc(C(=N)N)cc4c3)c2c1`, the Ki in assay [1] turned out to be 5 nM; in assay [2], 50 nM. On the same counts, the results for `N=C(N)c1ccc(CNc2ccc3ccn(-c4ccc(C(=N)N)cc4)c3c2)cc1` are 840 nM and 4530 nM.

`CC(=N)N1CCC(Oc2ccc3c4ccccc4n(Cc4ccc5ccc(C(=N)N)cc5c4)c3c2)CC1`: the Ki in assay [1] was found to be 1.6 nM; in assay [2] it was 40 nM.

On to `N=C(N)c1ccc(CNc2ccc3ccn(Cc4ccc(C(=N)N)cc4)c3c2)cc1`, for which the Ki in assay [2] turned out to be 3530 nM.

Take `COC(=O)c1cc2ccc(OC3CCN(C(C)=N)CC3)cc2n1Cc1ccc2ccc(C(=N)N)cc2c1`: the values for the Ki in assay [1] and in assay [2] were 0.2 nM and 180 nM, respectively. Take `N=C(N)c1cccc(Oc2ccc3c4ccccc4n(Cc4ccc5ccc(C(=N)N)cc5c4)c3c2)c1`: the Ki in assay [1] came out at 0.9 nM; in assay [2] it was 170 nM.

On to `N=C(N)c1ccc(-n2c3ccccc3c3ccc(OCc4ccc5ccc(C(=N)N)cc5c4)cc32)cc1`, for which the results for the Ki in assay [1] and in assay [2] were 60 nM and 1990 nM, respectively. For the compound `N=C(N)c1ccc(-n2ccc3ccc(NC(=O)c4cccc(C(=N)N)c4)cc32)cc1`, the Ki in assay [1] was 160 nM; in assay [2], 2320 nM. On the same counts, the results for `N=C(N)c1ccc(-n2ccc3ccc(NCc4cccc(C(=N)N)c4)cc32)cc1` are 340 nM and 3780 nM. On the same counts, the results for `N=C(N)c1ccc(-n2ccc3ccc(NCc4ccc5ccc(C(=N)N)cc5c4)cc32)cc1` are 30 nM and 570 nM.

These data come from ChEMBL document CHEMBL1133499, “Design, synthesis, and in vitro biological activity of indole-based factor Xa inhibitors” (Bioorg Med Chem Lett, 2000).
